The values below come from patent US20180118707A1, “BETA-NAPHTHOISOFLAVONES, COMPOSITIONS CONTAINING, AND USES OF, SAME” (Thesan Pharmaceuticals, Inc., priority 2015, published 2018).

Where only a bound is given, the exact number is not on record here.

Data set [1] deals with CYP1A1. In words: Induction of CYP1A1 enzyme in human cultured sebocytes, EROD assay. Format: cell-based. The following applies: cultured sebocytes, probe 7-ethoxyresorufin (8 μM). As to the method:
Cells are seeded at between 1×10^4 and 2.5×10^4 cells/well in a 96-well microtitre plate. […] 100 μl of medium is then transferred to a fresh black 96-well plate and 130 μl methanol added. The formation of resorufin is quantified by fluorometry with a fluorescence plate reader. Fluorescence is determined at λex 570 nm and λem 590 nm. The amount of resorufin is calculated from a standard curve generated using 0 to 1 μM resorufin in water at ½ log dilutions. The remaining (i.e. all cells present at the beginning of analysis, since only supernatant is taken to assay EROD) live cells are subsequently utilized for the MU cytotoxicity assay. MU is made up in serum-free medium at 5 mg/mi. then added to the cells giving a final concentration of 10% (0.5 mg/ml MIT final) then incubated for 2 h. The medium is carefully removed, then MIT formazan is solubilized by adding 200 μl of DMSO and subsequently mixed on a plate shaker. The absorbance is measured spectrophotometrically at 550 nm and background absorbance at […] is subtracted. A standard curve generated using MTT formazan (dissolved in DMSO) from O—200 μM (0, 2, 5, 10, 20, 50, 100, 200 μM) is used to calculate the final experimental values which are then expressed as (μmol resorufin/mol MTT formazan) or as fold-induction compared to solvent.

Data set [2] has as its system CYP1A1. In words: Induction of CYP1A1 enzyme in HepG2 cells, EROD assay. The data set is classed as cell-based, human. The following applies: human, probe 7-ethoxyresorufin (8 μM). How it is done:
(§1) The formation of resorufin is quantified by fluorometry with a fluorescence plate reader. Fluorescence is determined at λex 570 nm and λem 590 nm. The amount of resorufin is calculated from a standard curve generated using 0 to 1 μM resorufin in water at ½ log dilutions. The remaining (i.e. all cells present at the beginning of analysis, since only supernatant is taken to assay EROD) live cells are subsequently utilized for the MIT cytotoxicity assay. MTT is made up in serum-free medium at 5 mg/ml. then added to the cells giving a final concentration of 10% (0.5 mg/ml MTT final) then incubated for 2 h. The medium is carefully removed, then MTT formazan is solubilized by adding 200 μl of DMSO and subsequently mixed on a plate shaker. The absorbance is measured spectra photometrically at 550 nm and background absorbance at 690 nm is subtracted. A standard curve generated using MIT formazan (dissolved in DMSO) from O—200 μM (0, 2, 5, 10, 20, 50, 100, 200 μM) is used to calculate the final experimental values which are then expressed as (wnol resarufin/mol MTT formazan) or as fold-Induction compared to solvent.

The test system of another data set is HepG2 cells. Nature of the data set: MTT cytotoxicity assay in HepG2 cells after EROD. The data set is classed as cell-based, human. As to the method:
as §1, with “subtracted.” for “subtracted. A standard curve generated using MIT formazan (dissolved in DMSO) from O—200 μM (0, 2, 5, 10, 20, 50, 100, 200 μM) is used to calculate the final experimental values which are then expressed as (wnol resarufin/mol MTT formazan) or as fold-Induction compared to solvent.”
In general terms: Tetrazolium dyes change colour on reduction, which living cells bring about.

Another data set has as its system human sebocyte cells. Nature of the data set: MTT cytotoxicity assay in human cultured sebocytes after EROD. The data set is classed as cell-based. How it is done: The essential methodology for culture and handling of human cultured sebocytes has been described in earlier examples for HEPG2 and NHK cells. Cells are seeded at between 1×10^4 and 2.5×10^4 cells/well in a 96-well microtitre plate. […] The formation of resorufin is quantified by fluorometry with a fluorescence plate reader. Fluorescence is determined at λex 570 nm and λem 590 nm. The amount of resorufin is calculated from a standard curve generated using 0 to 1 μM resorufin in water at ½ log dilutions. The remaining (i.e. all cells present at the beginning of analysis, since only supernatant is taken to assay EROD) live cells are subsequently utilized for the MU cytotoxicity assay. MU is made up in serum-free medium at 5 mg/mi. then added to the cells giving a final concentration of 10% (0.5 mg/ml MIT final) then incubated for 2 h. The medium is carefully removed, then MIT formazan is solubilized by adding 200 μl of DMSO and subsequently mixed on a plate shaker. The absorbance is measured spectrophotometrically at 550 nm and background absorbance at […] is subtracted. A standard curve generated using MTT formazan (dissolved in DMSO) from O—200 μM (0, 2, 5, 10, 20, 50, 100, 200 μM) is used to calculate the final experimental values which are then expressed as (μmol resorufin/mol MTT formazan) or as fold-induction compared to solvent.

The subject of another data set is sebaceous glands. Nature of the data set: Mouse ear assay for determination of sebaceous gland prevalence. Format: in vivo. The following applies: C57BL/6 mice, ears, 1% solution in DMSO:acetone 50:50 twice a day for five days, vs controls. As to the method: C57BL/6.I male mice (Harlan Models), approximately 4-5 weeks of age, body weight 20-30 g, were acclimatized (individually housed) for 5 days in a 12 hour light/dark cycle standard laboratory environment (T=20-24° C., relative humidity 30-70%, 15-20 air changes per hour) with access to water and standard rodent chow (Harlan Teklad 2014C supplied by Harlan Laboratories Models, S.L.) ad libitum. Animals were anesthetized with isoflurane and the test article (80 ul, 1% solution in DMSO:acetone 50:50) was administered to the outer surface of each of the ears of between 2 and 5 mice twice a day for five days by dermal application using a micropipette tip (a little volume of the solution was also applied on the inner side of the ears). All animals were monitored daily for reaction to the treatment, signs of illness, and behavioral changes. Body weights were recorded before the first administration and immediately prior to sacrifice. Approximately 12 to 16 hours after the final administration on day 5 the mice were sacrificed by i.p. injection of sodium pentobarbital (200 mg/kg) and the ears were collected. Each ear was sectioned into two halves. For each animal, one-half of one ear was fixed, in neutral phosphate-buffered 4% formaldehyde solution (4% formalin). This trimmed section of the ear was then processed, embedded in paraffin wax and stored at room temperature. […]

As to `O=c1c(-c2cccc(O)c2)coc2ccc3ccccc3c12` [Compound H], the EC50 – broadly, the concentration that produces a half-maximal response – at 24 h with CYP1A1 [1] was 250 nM; with CYP1A1 [2], 1500 nM. Moreover, the Toxicity threshold is above 100 µM in the data set with HepG2 cells and above 30 µM in the data set on human sebocyte cells.

`O=c1c(-c2ccc(O)cc2)coc2ccc3ccccc3c12` [Compound J]: the EC50 at 24 h with CYP1A1 [1] turned out to be 50 nM; in the data set with CYP1A1 [2] it was 1500 nM. For the same molecule, the Toxicity threshold was 100 µM with HepG2 cells and above 30 µM in the data set on human sebocyte cells.

In the case of `COc1ccccc1-c1coc2ccc3ccccc3c2c1=O` [Compound F], the EC50 at 24 h with CYP1A1 [1] came to 200 nM; in the data set with CYP1A1 [2], 2000 nM. Besides, the values for the Toxicity threshold in the data set with HepG2 cells and in the data set with human sebocyte cells were above 30 µM and 50 µM, respectively.

On to `O=c1c(-c2ccccc2)coc2ccc3ccccc3c12` [Compound B], for which the “number of differentiated sebocytes” value in the data set on sebaceous glands is “reduction”. In the data set on sebaceous glands, the “number of sebaceous glands” value was “clear reduction”. The EC50 at 24 h in the data set on CYP1A1 [1] turned out to be 50 nM; in the data set with CYP1A1 [2], 1000 nM. Further, the Toxicity threshold in the data set on HepG2 cells and in the data set with human sebocyte cells was above 30 µM in each case.

Take `COc1cccc(-c2coc3ccc4ccccc4c3c2=O)c1` [Compound G]: the EC50 at 24 h in the data set on CYP1A1 [1] is 250 nM; in the data set with CYP1A1 [2] it was 2000 nM. The figures for the Toxicity threshold in the data set on HepG2 cells and in the data set on human sebocyte cells were 100 µM and 30 µM, respectively.
